{"source": "patent US10420781B2", "about": "“Thyroid hormone receptor agonist and use thereof” (Metabasis Therapeutics, Inc., priority 2016, dated 2019)", "key": {"[1]": {"test_system": "beagle dogs", "assay": "Once-daily oral administration for 14 days, thyroid function tests (tT4, fT4, tT3, fT3, TSH) in beagle dogs", "assay_type": "in vivo, dog", "protocol": "(§1) The effects of once-daily oral administration of Compound I on plasma cholesterol levels and thyroid function indicators in beagle dogs were evaluated for 14 days.\n(§2) Male and female beagle dogs were purchased from Marshall Farms (North Rose, N.Y.) at approximately 9-15 kg in body weight. Animals were housed individually under a 12 hour lighting cycle (7 am-7 pm light) and controlled temperature (˜22° C.). The dogs were fed twice-daily with Teklad 8563 chow (Harlan Teklad, Madison, Wis.) and allowed water ad libitum.\nCompound I was dissolved in 100% PEG-400. The formulation was prepared just prior to initiation of treatment and stored at 4° C. A fresh formulation was prepared for each 7 day treatment period.\nTwelve beagle dogs (9-15 kg) were randomized into 6 dosing groups (1 male and 1 female/group) and gavaged once-daily with a PEG-400 solution of Compound I at doses of 0.1, 0.3, 1, 3, or 10 mg/kg or with vehicle for 14 days. At the end of the treatment cycle (Cycle 1), the dogs were washed out for 6 weeks and then entered into a second 14-day treatment cycle. Cycle 2 employed the same dosing paradigm as Cycle 1, but animals were randomized to Cycle 2 in such a way that the combined dosing groups from the two cycles each consisted of 4 different animals (2 males, 2 females). Blood samples were collected at baseline and appropriate time intervals thereafter and analyzed for total plasma cholesterol levels, serum levels of total T4 (tT4), free T4 (fT4), total T3 (tT3), free T3 (fT3), thyroid stimulating hormone (TSH), and plasma drug levels.\nSerum samples were shipped on dry ice to the Diagnostic Center for Population and Animal Health (Lansing, Mich.) and assayed for total T4 (tT4), free T4 (fT4), total T3 (tT3), free T3 (fT3), and thyroid stimulating hormone (TSH). Average values±the standard error of the mean (SEM) were calculated for all treatment groups."}, "[2]": {"test_system": "fT3 and fT4 levels in human serum", "assay": "Ex vivo effect on fT3 and fT4 levels in human serum (RIA)", "protocol": "(§3) Compound I was tested to measure its ex vivo effects at concentrations ranging from 0 to 100 μM on the free 3,5,3′-triiodothyronine (fT3) and the free 3,5,3′,5′ tetraiodothyronine (fT4) levels in human, monkey, dog, and rat sera.\n(§4) Stock solution of Compound I was prepared in 100% DMSO. The test articles were combined with either human, monkey, dog or rat serum in a microcentrifuge tube at concentrations of 1, 3, 10, 30, and 100 μM, and incubated at 37° C. with agitation (800 rpm) using a Thermomixer R (Eppendorf, Inc.; Westbury, N.Y.) for 1 h. The DMSO concentration in the serum incubations was kept constant at 1%. Following the serum incubations, fT3 and T4 quantification was accomplished using the GammaCoat™ FT3 and the GammaCoat™ FT4 RIA kits, respectively. The kits were used according to the manufacturer's recommendations. The T3 assay specifications indicate 0.2% cross-reactivity with T4, while the T4 assay specifications indicate 0.5% cross-reactivity with T3. In these […] assays, a shaking water bath and a Wallac Wizard 1470 automatic gamma counter (Perkin Elmer, Inc.; Waltham, Mass.) were used. At each concentration tested, a background signal was subtracted from the data. This background signal was determined in samples of the test articles in PBS in the absence of serum. All assays were performed in duplicate."}, "[3]": {"test_system": "fT3 and fT4 levels in dog serum", "assay": "Ex vivo effect on fT3 and fT4 levels in dog serum (RIA)", "settings": "1 h at 37° C., 1-100 μM tested", "protocol": "as §3, §4"}, "[4]": {"test_system": "rat", "assay": "Pilot rat 28-day safety study", "settings": "28 days; 1 and 5 mg/kg per day", "method": "Two doses were tested, 1 mg/kg per day and 5 mg/kg per day. […] The mice were sacrificed on day 29 and then analyzed for clinical signs, BW, FC Clinical pathology (including TSH, T3, T4), gross pathology, organ weights, histopathology, toxicokinetics."}, "[5]": {"test_system": "fT3 and fT4 levels in rat serum", "assay": "Ex vivo effect on fT3 and fT4 levels in rat serum (RIA)", "settings": "1 h at 37° C., 1-100 μM tested", "protocol": "as §3, §4"}, "[6]": {"test_system": "fT3 and fT4 levels in monkey serum", "assay": "Ex vivo effect on fT3 and fT4 levels in monkey serum (RIA)", "settings": "1 h at 37° C., 1-100 μM tested", "protocol": "as §3, §4"}, "[7]": {"test_system": "beagle dogs", "assay": "Comparison of Compound I and MB07811: cholesterol, tT4 and TSH in beagle dogs", "assay_type": "in vivo, dog", "protocol": "Compound I was compared with Compound MB07811 with respect to their efficacy in lowering cholesterol and their effects on the total T4 (tT4) and thyroid stimulating hormone (TSH).\nCompound I and Compound MB07811 were tested to determine the effects of oral administration of each compound once-daily for 14 days followed by alternate day dosing for 14 days on plasma cholesterol levels and indicators of thyroid function in beagle dogs.\nas §2, with “Beagle” for “beagle”, “kg.” for “kg in body weight.”, “12-hour” for “12 hour”, “twice daily” for “twice-daily”\nMB07811 was administered as a suspension in 0.5% CMC/1% Lutrol in deionized water. To prepare the vehicle, the required amount of CMC was weighed and dissolved in deionized water using a Waring blender. The required amount of Lutrol F68 was weighed and slowly added to the Waring blender while mixing. […]\nTwelve beagle dogs (9-15 kg) were randomized into 6 dosing groups (1 male and 1 female/group) and gavaged once-daily with a 0.5% CMC/1% Lutrol F68 suspension of MB07811 at doses of […] or with vehicle for 14 days. […] Blood samples were collected at baseline and appropriate time intervals thereafter and analyzed for total plasma cholesterol levels, serum levels of total T4 (tT4), free T4 (fT4), total T3 (tT3), free T3 (fT3), and thyroid stimulating hormone (TSH). […]\n(§5) Twelve beagle dogs (9-15 kg) were randomized into 6 dosing groups (1 male and 1 female/group) and gavaged once-daily with a PEG-400 solution of Compound I at doses of 0.1, 0.3, 1, 3, or 10 mg/kg or with vehicle for 14 days. […] Blood samples were collected at baseline and appropriate time intervals thereafter and analyzed for total plasma cholesterol levels, serum levels of total T4 (tT4), free T4 (fT4), total T3 (tT3), free T3 (fT3), and thyroid stimulating hormone (TSH), and for plasma drug levels"}, "[8]": {"test_system": "beagle dogs", "assay": "Once-daily oral administration for 14 days, total plasma cholesterol in beagle dogs", "assay_type": "in vivo, dog", "settings": "14 days once-daily oral, 0.1-10 mg/kg/day", "protocol": "as §1, §2\nCompound I was dissolved in 100% PEG-400. The formulation was prepared just prior to initiation of treatment and stored at 4° C. […]\nas §5, with “(fT3),” for “(fT3), and”, “and” for “and for”, “drug levels.” for “drug levels”\nTotal plasma cholesterol was measured using an Infinity cholesterol reagent (Thermo Electron Corporation, Waltham, Mass.) and with use of a standard curve prepared from a 300 mg/dL cholesterol standard. […]"}, "[9]": {"test_system": "cholesterol-fed Sprague Dawley rat", "assay": "Single oral dose, plasma cholesterol lowering in cholesterol-fed rat", "assay_type": "in vivo", "settings": "24 hours", "protocol": "Compound I was tested to determine the cholesterol lowering efficacy and potency of Compound I following oral administration of single dose to a standard rodent model of hypercholesterolemia, the cholesterol-fed Sprague Dawley rat.\nMale Sprague Dawley rats were obtained from Harlan (Livermore, Calif.) at a body weight of 250 g, caged 3 rats/cage, and housed under a 12 h:12 h, light:dark cycle (lights on at 7 AM). Pelleted 5001 chow containing 1.5% cholesterol and 0.5% cholic acid (Harlan Teklad, Indianapolis, Ind.) was provided for 2 weeks prior to the initiation of treatment. Food and water were provided ad libitum.\nCompound I was dissolved in 100% PEG-400. […]\nMale Sprague Dawley rats (˜250 g) were fed a diet containing 1.5% cholesterol and 0.5% cholic acid for 2 weeks prior to the initiation of treatment. Compound I was administered as an oral solution in PEG-400 and phosphate buffered saline, respectively, at doses ranging from 0.3 to 100 mg/kg Compound I. Thyroid hormone T3 (0.1 mg/kg) was evaluated as a positive control. […]\nPlasma was prepared from the blood samples by centrifugation in an Eppendorf Microfuge (14,000 rpm, 2 min, room temperature). Total plasma cholesterol was measured using the Infinity cholesterol reagent (Thermo Electron Corporation, Waltham, Mass.) and a standard curve prepared with a 300 mg/dL cholesterol standard. […]"}, "[10]": {"settings": "all five doses 0.1, 0.3, 1, 3, 10 mg/kg, baseline, 8-day, 15-day"}}, "note": "“Also recorded” adds a separate entry of the source.", "data": [{"smiles": "Cc1cc(OCP(=O)(OCOC(=O)C(C)(C)C)OCOC(=O)C(C)(C)C)cc(C)c1Cc1ccc(O)c(Cc2ccccc2)c1", "note": "[Compound I]", "values": [{"measurement": "reduction of serum fT3", "setting": "[1]; 14 days, highest dose group 10 mg/kg/day", "value": "about 45%"}, {"measurement": "reduction of serum tT4 from baseline", "setting": "[1]; Day 15, 1 mg/kg/day", "value": "about 29%"}, {"measurement": "tT4 levels reduced relative to baseline (in the fT3 paragraph, FIG. 9)", "setting": "[1]; Day 15, 10 mg/kg/day", "value": "~45", "unit": "%"}, {"measurement": "reduction of serum tT4 from baseline", "setting": "[1]; Day 15, 0.1, 0.3 and 3 mg/kg/day", "value": "6.7-9.5%"}, {"measurement": "change of serum TSH levels from baseline", "setting": "[1]; Day 15, 0.1 to 10 mg/kg/day", "value": "no meaningful changes; also recorded: did not show any effect; also recorded: essentially unaffected"}, {"measurement": "reduction of serum fT4 from baseline", "setting": "[1]; Day 15, all Compound I treated groups, not dose dependent, vehicle about 19%", "value": "13-32%"}, {"measurement": "reduction of serum fT3 from baseline", "setting": "[1]; Day 15, doses up to and including 3 mg/kg/day", "value": "8-20%"}, {"measurement": "reduction of serum tT3 from baseline", "setting": "[1]; Day 15, treatment groups, not dose dependent, vehicle about 13%", "value": "8-15%"}, {"measurement": "concentration at which no effect on fT3 was shown", "setting": "[2]", "value": "less than 30"}, {"measurement": "concentration at which no effect on fT4 was shown", "setting": "[2]", "value": "less than 100 μM"}, {"measurement": "highest concentration at which no increase in fT3 level was observed", "setting": "[2]; 1 h at 37° C., 1-100 μM tested", "value": 30, "unit": "µM"}, {"measurement": "highest concentration at which no increase in fT4 level was observed", "setting": "[2]; 1 h at 37° C., 1-100 μM tested", "value": 100, "unit": "µM"}, {"measurement": "highest concentration at which no increase in fT3 level was observed", "setting": "[3]", "value": 100, "unit": "µM"}, {"measurement": "highest concentration at which no increase in fT4 level was observed", "setting": "[3]", "value": 100, "unit": "µM"}, {"measurement": "TFT effects greater than Compound MB07811", "setting": "[4]", "value": "no evidence"}, {"measurement": "cardiac or liver necrosis", "setting": "[4]", "value": "no evidence"}, {"measurement": "deaths or adverse effects on body weight, food consumption, hematology, serum chemistry or urinalysis, or macroscopic or microscopic pathology", "setting": "[4]", "value": "no deaths or adverse effects"}, {"measurement": "highest concentration at which no increase in fT3 level was observed", "setting": "[5]", "value": 100, "unit": "µM"}, {"measurement": "highest concentration at which no increase in fT4 level was observed", "setting": "[5]", "value": 100, "unit": "µM"}, {"measurement": "highest concentration at which no increase in fT3 level was observed", "setting": "[6]", "value": 30, "unit": "µM"}, {"measurement": "highest concentration at which no increase in fT4 level was observed", "setting": "[6]", "value": 100, "unit": "µM"}, {"measurement": "effect on T4 (tT4) levels in comparison", "setting": "[7]; [10]", "value": "reduced effect"}, {"measurement": "effect on serum TSH level in comparison with MB07811", "setting": "[7]; [10]", "value": "no effect"}, {"measurement": "effect on the thyroid hormone axis (T4 and TSH) versus MB07811", "setting": "[7]; dog, in vivo", "value": "much reduced effect"}, {"measurement": "reduction of total plasma cholesterol levels, dose dependent", "setting": "[8]", "value": "15-38%"}, {"measurement": "ED50", "setting": "[9]; Rattus norvegicus, single oral dose, read-out: ED50 (dose that elicits a half-maximal reduction in total plasma cholesterol levels from baseline)", "value": "~2", "unit": "mg/kg"}]}, {"smiles": "N[C@@H](Cc1cc(I)c(Oc2ccc(O)c(I)c2)c(I)c1)C(=O)O", "note": "[Compound T3, 3,5,3′-triiodo-L-thyronine, reference compound]", "values": [{"measurement": "magnitude of cholesterol lowering versus Compound I at its two highest doses", "setting": "[9]; T3 0.1 mg/kg, Compound I 30 and 100 mg/kg", "value": "comparable"}]}]}
